Measured values from patent publication US5260321A, “Use of 1,4-dihydropyridine derivatives and combinations thereof with calcitonins” (priority 1984, dated 1993).

Assays:
Assay type in all cases: in vivo
[1] = system: neointimal lesion development in the rat carotid artery; assay: Inhibition of neointimal lesion development in the rat carotid artery (balloon catheterization test); settings: for Maximal intimal height: mean ± SD
Procedure: The anti-atherogenic activity has been confirmed also by measurement of the inhibition of neointimal lesion development in the rat carotid artery (balloon catheterization test, essentially as published in A. W. Clowes et al., Lab. Invest. 49 [1983]208-215).
In a first experiment a group of 12 rats was given PN 250 μg/kg/day in 10% ethanol-water s.c. A control group of 9 animals was non-injected and a further control group of 7 animals was vehicle-injected. Animals were randomized into 3 groups for catheterization and were weighed every other day throughout the study. Rats were anesthetized with ether inhalation. The […] region was shaved and the external branch of the left common carotid artery was isolated by an incision from the lower mandible to the clavicle, followed by retracting the submaxillary gland (lateral) and several muscle bundles including the sternohyoideus (medial), sternomastoideus (lateral) and digastricus posterior belly (lateral). […] Lidocaine was applied to vasodilate during catheter introduction. Following an incision with iris scissors, a Fogarty arterial embolectomy catheter (No. 2F) was inserted into the external branch of the carotid, passed into the aortic arch and slightly withdrawn to assure inflation of the catheter within the common carotid artery. The catheter was inflated using approximately 900 mmHg air pressure, drawn distally and deflated. This was repeated three times to assure complete de-endothelialization of the common carotid. The catheter was removed, the artery ligated and the incision closed. Under these conditions the carotid is completely de-endothelialized.
Animals were sacrificed 14 days after ballooning in the same sequence as the catheterization. Thirty minutes before fixation the animals were injected with a 2.25% Evan's Blue dye solution (1.5 mg/kg iv) to differentiate between the neointimal and re-endothelialized areas. Areas of the carotid that have endothelial regrowth exclude the dye and appear white. The remaining areas that lack endothelium are stained blue. Whole body (beating heart) perfusion fixations (90-110 mmHg) were then performed on anesthetized (sodium pentobarbital, 50.0 mg/kg ip) animals using 200 ml of 1% glutaraldehyde in 0.15M sodium cacodylate buffer (pH 7.4, 37° C., 410 mOsm) followed by 400 ml of 3% glutaraldehyde in 0.15M sodium cacodylate. The entry site of the fixative was a puncture in the left ventricle, with efflux collected by vacuum suction from the right atrium. The thoracic aorta flow was restricted to optimize carotid perfusion. Successful fixation was judged by upper body rigidity and an absence of blood from the large arteries.
In a second experiment the procedure as described above was followed, with groups consisting of non-injected controls (n=8), animals treated with PY (n=5) or PN (n=8). Animals received drug for 2 days before catheterization and to the conclusion of the study (14 days). PY and PN were given at 1.0 mg/kg in 10% EtOH-water s.c. All animals (controls and drug-treated) were randomized into 3 groups for catheterization.
After each experiment the fixed carotid was removed and cut into 3 segments (distal, central, proximal). Tissue processing of only the central segment included 18 hours in 3% buffered glutaraldehyde, buffer rinsing, dehydration in an ascending ethanol series and infiltration with Spurr's resin. The samples were embedded with cross-sectional orientation so that sectioning (0.5 μm) would include blue areas which have not re-endothelialized and show continued proliferative responses. A two-step polychromatic stain utilizing toluidine blue and 1.0% basic fuchsin rendered histological differentiation to nuclear, cytoplasmic and extracellular connective matrix components.
All light microscopic histology slides were randomized, encoded and evaluated utilizing a Zeiss standard microscope and the Videoplan computerized image analyzer. Vessel measurements included maximum lesion height. […]

[2] = system: ionized calcium concentration in the blood; assay: Rabbit test: ionized calcium in blood by calcium ion selective electrode; settings: PN alone
Procedure: (§1) The effect of the compounds of the invention in lowering calcium levels is indicated in any standard animal test for hypercalcemic activity. In one test the compound is administered to rabbits (e.g. ca. 1 kg in weight) either as a suspension e.g. 0.1 to 5 mg (e.g. 0, 1 mg) per ml of solution (i.e. blood plasma with ca. 1-5% alcohol) and 0.1-5 mg/kg animal body weight by intravenous infusion (0.5 ml per hour) or orally e.g. 1 to 5 mg/kg animal body weight as a suspension in distilled water. A significant lowering of calcium ions is observed using standard measuring techniques for calcium ions in the blood, e.g. using a calcium ion selective electrode, or by photometric methods.
One method for measuring calcium ion concentrations is as follows: […]
The concentration of ionized calcium in the blood is measured potentiometrically as follows: The difference in potential between the reference electrode and the Ca^2+ -selective electrode is measured differentially relative to the common electrode. The difference is amplified and the analogue signal produced by the amplifier is processed by a digital voltmeter and continuously recorded as a function of time, the difference in voltage being proportional to the Ca^2+ concentration. […]

[3] = system: total calcium; assay: Rabbit intravenous experiment repeated, total calcium measured photometrically; settings: intravenous infusion, photometric
Procedure: as §1
The intravenous experiment is repeated measuring total calcium photometrically. Drop in calcium levels over 11/2 hours=23%, over 21/2 hours=30%.

[4] = Expt. 2, 1.0 mg/kg s.c. from 2 days before catheterization to day 14, controls 72.4 ± 17.4

SMILES	Inhibition of lesion development ([1]; Expt. 1, 0.25 mg/kg/d)	Maximal intimal height ([1]; Expt. 1, 0.25 mg/kg/day s.c., 14 days after ballooning, controls 84.9 ± 21.3)	Maximal intimal height [1, 4]	Inhibition of lesion development ([1]; Expt. 2, 1.0 mg/kg/d)	Lowering of ionized calcium ([2]; intravenous infusion, 0.5 mg/0.5/over 1 hour)	Lowering of ionized calcium ([2]; oral 1 mg/kg)	Drop in calcium levels (total calcium) ([3]; over 11/2 hours)	Drop in calcium levels (total calcium) ([3]; over 21/2 hours)	Tolerability ([1]; rats, s.c., all doses used (0.25 and 1.0 mg/kg))
COC(=O)C1=C(C)NC(C)=C(C(=O)OC(C)C)C1c1cccc2nonc12 (centres unmarked) [PN, 4-(2,1,3-benzoxadiazol-4yl)-1,4-dihydro-2,6-dimethyl-3-methoxycarbonyl-pyridine-5-carboxylic acid isopropyl ester]	26%	63.2 ± 19.9 μm	38.9 ± 22.0 μm	46%	10-20%	5-10%	23%	30%	–
CCOC(=O)C1=C(C)NC(C)=C(C(=O)OCC)C1c1cccc2nonc12 [PY, 4-(2,1,3-benzoxadiazol-4-yl)-1,4-dihydro-2,6-dimethylpyridine-3,5-dicarboxylic acid diethyl ester]	–	–	58.6 ± 18.1 μm	19%	–	–	–	–	tolerated at all doses used
